The values below come from ChEMBL document CHEMBL3045949, “Antifeedant and toxic effects of naturally occurring and synthetic quinones to the cabbage looper, Trichoplusia ni” (Crop Prot, 2012).

Experiment [1] deals with Trichoplusia ni. The experiment in a line: Antifeedant activity against Trichoplusia ni (cabbage looper) third-instar larvae stage assessed as feeding deterrence index at 50 microg/cm'2 by feeding deterrent bioassay. The experiment is classed as functional.
The subject of experiment [2] is Trichoplusia ni. The experiment in a line: Toxicity against Trichoplusia ni (cabbage looper) third-instar larvae stage assessed as mortality at 10 ug/ml for 24 hr by topical application. It counts as functional.
In experiment [3] the test system is Trichoplusia ni. The experiment in a line: Antifeedant activity against Trichoplusia ni (cabbage looper) third-instar larvae stage assessed as concentrations causing 50% feeding deterrence by feeding deterrent bioassay. It counts as functional, organism-based.
Experiment [4] has as its system Trichoplusia ni. The experiment in a line: Protection of intact cabbage plants from Trichoplusia ni (cabbage looper) measured as reduction in weight of larvae by lopper in green house for 10 days (reference value: 33.8 mg). It counts as functional.
Experiment [5] concerns Trichoplusia ni. In words: Protection of intact cabbage plants from Trichoplusia ni (cabbage looper) measured as leaf area consumed by lopper in green house for 10 days (reference value: 8.5 cm'2). It counts as functional.

On to `O=C1C(=O)c2ccccc2-c2ccccc21` [9,10-PHENANTHRENEQUINONE], for which the FDI with Trichoplusia ni [1] is given as -15.4%. The mortality – broadly, the share of the test organisms that died – at 10 µg/mL in the experiment with Trichoplusia ni [2] is 10%.
In the case of `O=C1C(Cl)=C(Cl)C(=O)C(Cl)=C1Cl` [CHLORANIL], the FDI in the experiment on Trichoplusia ni [1] came out at 35.8%. Moreover, the mortality at 10 µg/mL with Trichoplusia ni [2] stood at 10%.
Take `Cc1cc(O)c2c(c1)C(=O)c1cc(O)cc(O)c1C2=O` [EMODIN]: the FDI with Trichoplusia ni [1] came to 22.1%. Besides, the mortality at 10 µg/mL with Trichoplusia ni [2] is 10%.
Take `c1ccc2c(c1)ccc1cccnc12` [1-NAPHTHOQUINOLINE]: the FDI with Trichoplusia ni [1] turned out to be 75.7%. The mortality at 10 µg/mL in the experiment with Trichoplusia ni [2] was 10%. Moreover, the DC50 in the experiment on Trichoplusia ni [3] is on record as 16.4 microg/cm2.
For `O=C1c2cccc(O)c2C(=O)c2c(O)cccc21` [DANTHRON] the same measures were 86.2%, 12% and 9.2 microg/cm2.
For `O=C1C=CC(=O)C=C1` [BENZOQUINONE], the FDI in the experiment with Trichoplusia ni [1] is reported as 17.8%.
For the compound `COC1=C(OC)C(=O)C(C)=CC1=O` [Ubiquinone Qo], the FDI in the experiment on Trichoplusia ni [1] is 86.7%. In the experiment with Trichoplusia ni [2], the mortality at 10 µg/mL was found to be 23.3%. Moreover, in the experiment with Trichoplusia ni [3], the DC50 was found to be 4.2 microg/cm2.
`CC1=CC(=O)c2ccccc2C1=O` [MENADIONE]: in the experiment on Trichoplusia ni [1], the FDI was 100%. The mortality at 10 µg/mL in the experiment on Trichoplusia ni [2] turned out to be 13%. Besides, the DC50 in the experiment on Trichoplusia ni [3] came out at 6.3 microg/cm2.
As for `O=C1C=Cc2ccccc2C1=O` [1,2-NAPHTHOQUINONE], the FDI in the experiment with Trichoplusia ni [1] worked out at 100%. For the same compound, the mortality at 10 µg/mL in the experiment on Trichoplusia ni [2] was found to be 3.3%. Moreover, in the experiment on Trichoplusia ni [3], the DC50 was 1.8 microg/cm2.
For `O=C1C(Br)=C(Br)C(=O)c2ccccc21` [2,3-Dibromo-1,4-naphthoquinone] the same measures were 100%, 10% and 26.4 microg/cm2.
As for `O=C1c2cccc(O)c2C(=O)c2cccc(O)c21` [ANTHRARUFIN], the FDI with Trichoplusia ni [1] is on record as -58.6%. The mortality at 10 µg/mL in the experiment with Trichoplusia ni [2] was 15%.
For `O=C1C(Cl)=C(N2CCOCC2)C(=O)c2ccccc21` [2-Chloro-3-morpholino-1,4-naphthoquinone], the FDI with Trichoplusia ni [1] turned out to be 100%. Besides, in the experiment on Trichoplusia ni [2], the mortality at 10 µg/mL turned out to be 12%. Further, the DC50 in the experiment with Trichoplusia ni [3] stood at 9.7 microg/cm2.
In the case of `CC1=C(Br)C(=O)C(C(C)C)=C(Br)C1=O` [Dibromothymoquinone], in the experiment with Trichoplusia ni [1], the FDI was found to be 42.2%. For the same compound, the mortality at 10 µg/mL in the experiment on Trichoplusia ni [2] is 5%.
For `CC1=CC(=O)c2c(O)cccc2C1=O` [PLUMBAGIN], the FDI in the experiment on Trichoplusia ni [1] stood at 100%. In addition, the mortality at 10 µg/mL in the experiment on Trichoplusia ni [2] came out at 7%. Further, the values for the Activity with Trichoplusia ni [4] and in the experiment with Trichoplusia ni [5] were 12.7 mg and 3.5 cm2, respectively. In the experiment with Trichoplusia ni [3], the DC50 came out at 3.3 microg/cm2.
`O=C1C=C(Br)C(=O)c2ccccc21` [2-Bromo-1,4-naphthoquinone]: the FDI with Trichoplusia ni [1] turned out to be 80.7%. Further, the mortality at 10 µg/mL in the experiment on Trichoplusia ni [2] came to 15%. The DC50 with Trichoplusia ni [3] worked out at 8.4 microg/cm2.
For `CC(C)=CCC1=C(O)C(=O)c2ccccc2C1=O` [LAPACHOL], the FDI in the experiment on Trichoplusia ni [1] is 9.1%. Moreover, in the experiment with Trichoplusia ni [2], the mortality at 10 µg/mL worked out at 10%.
`O=C1C(Cl)=C(Cl)C(=O)c2ccccc21` [Dichlon]: the FDI with Trichoplusia ni [1] was 39.8%. Besides, in the experiment on Trichoplusia ni [2], the mortality at 10 µg/mL worked out at 8%.
As to `O=C1c2ccccc2C(=O)c2c(O)cccc21` [1-HYDROXYANTHRAQUINONE], the FDI in the experiment with Trichoplusia ni [1] is given as -41.5%. Also, in the experiment with Trichoplusia ni [2], the mortality at 10 µg/mL came out at 10%.
For `CC1=CC(=O)C(C(C)C)=CC1=O` [THYMOQUINONE], in the experiment on Trichoplusia ni [1], the FDI is 100%. The mortality at 10 µg/mL in the experiment with Trichoplusia ni [2] was determined as 26.7%. In addition, in the experiment on Trichoplusia ni [3], the DC50 amounted to 19.3 microg/cm2.
For `O=C1C=CC(=O)c2c(O)cccc21` [JUGLONE], in the experiment on Trichoplusia ni [1], the FDI was found to be 100%. For the same compound, the mortality at 10 µg/mL with Trichoplusia ni [2] is 5%. In addition, the Activity is 8.1 mg in the experiment with Trichoplusia ni [4] and 1.7 cm2 in the experiment with Trichoplusia ni [5]. Also, the DC50 with Trichoplusia ni [3] is 2.1 microg/cm2.
As for `COC1=CC(=O)c2ccccc2C1=O` [2-Methoxy-1,4-naphthoquinone], the FDI in the experiment on Trichoplusia ni [1] was found to be 96.8%. In the experiment on Trichoplusia ni [2], the mortality at 10 µg/mL is 8%. Moreover, the DC50 with Trichoplusia ni [3] is listed as 2.6 microg/cm2.
With `O=C1C=CC(=O)c2c(O)ccc(O)c21` [NAPHTHAZALIN], the FDI in the experiment with Trichoplusia ni [1] came out at 100%. Besides, the mortality at 10 µg/mL in the experiment with Trichoplusia ni [2] is 20%. Also, the DC50 with Trichoplusia ni [3] came to 10.1 microg/cm2.
